Where “and” joins values, the source holds several entries; their conditions need not be identical. Equal entries are not always repeated. Calls of active or inactive are those of the source. The rule behind the calls is not given here.
Target: Induced myeloid leukemia cell differentiation protein Mcl-1 (Homo sapiens) (UniProt Q07820)
Experiment: blockers of Bid binding to Mcl-1 – biochemical, TR-FRET, dose response (AID 1418)
Conditions: Mcl-1/Bid peptide binding, TR-FRET (europium/Dy647), 2 hr

Induced myeloid leukemia cell differentiation protein Mcl-1 (Homo sapiens), sequence (Q07820 whole entry, looked up): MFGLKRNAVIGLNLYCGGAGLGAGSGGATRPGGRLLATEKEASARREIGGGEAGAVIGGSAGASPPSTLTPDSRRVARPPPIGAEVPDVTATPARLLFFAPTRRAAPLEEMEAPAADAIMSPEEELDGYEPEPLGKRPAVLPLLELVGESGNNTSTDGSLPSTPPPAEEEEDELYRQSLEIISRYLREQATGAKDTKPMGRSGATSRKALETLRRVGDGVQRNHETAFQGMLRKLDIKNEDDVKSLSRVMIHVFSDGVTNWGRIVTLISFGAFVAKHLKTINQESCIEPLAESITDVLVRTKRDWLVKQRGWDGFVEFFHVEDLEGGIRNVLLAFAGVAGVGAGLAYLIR

| Compound | IC50 |
| --- | --- |
| C[N+](C)(C)c1ccc(/C=N/Nc2nc(Cl)c(C#N)c(Cl)c2Cl)cc1 | > 54 µM (inactive) |
| COc1cc(OC)cc(C(=O)N[C@H](C(=O)OCC(=O)NC(=O)c2cccn2C)C(C)C)c1 | > 54 µM (inactive) |
| CC1(C)CC(=O)C(C(c2cccnc2)C2C(=O)CC(C)(C)CC2=O)C(=O)C1 | > 54 µM (inactive) |
| CCOc1ccc(N=C2NC(=O)S/C2=C\c2ccc(O)cc2)cc1 | 0.84 µM |
| CCCCCCn1c(O)c(C=NCCN2CCOCC2)c(=O)[nH]c1=O | > 54 µM (inactive) |
| Clc1ccc2nc(CN3CCCc4ccccc43)cn2c1 | > 54 µM (inactive) |
| COC(CNC(=O)c1ccc2nc(-c3cccs3)c(-c3cccs3)nc2c1)OC | > 54 µM (inactive) |
| COc1ccc(NC(=S)NNc2ccc(S(=O)(=O)Nc3ccccc3C(=O)O)cc2[N+](=O)[O-])cc1 | 22.3 µM |
| NC(=O)NC(CC(=O)NCCc1ccc(S(N)(=O)=O)cc1)c1ccc(Cl)cc1 (stereo not given) | > 54 µM (inactive) |
| CCC(CC)NC(=O)COC(=O)c1cc(Br)ccc1Cl | > 54 µM (inactive) |
| COC(=O)c1ccc2nc(Nc3nc4ccc(F)cc4s3)sc2c1 | 0.49 µM |
| COc1cccc2c1c(NC(=O)Nc1ccc(F)cc1F)nn2C | > 54 µM (inactive) |
| CCN(CC)C(=O)CN(C)S(=O)(=O)c1cccc2nsnc12 | > 54 µM (inactive) |
| COc1cc2c(cc1OC)-c1cc(NCc3ccccn3)nc(=O)n1CC2 | 0.55 µM |
| O=C(CSc1nc2c(cnn2-c2ccc(F)cc2)c(=O)[nH]1)N1CCCc2ccccc21 | > 54 µM (inactive) |
| COc1ccc2nc(C)cc(SCC(=O)Nc3c(C)cccc3C)c2c1 | 10.5 µM |
| Fc1cc(F)c2nc(Nc3nc4cc5c(cc4s3)OCO5)sc2c1 | 0.59 µM |
| CCSC1=NC2(CCCCC2)Nc2sc3c(c21)CCCC3 | 0.44 µM |
| COC(=O)c1ccc(CNC(=O)c2c3c(nc4ccccc24)CCN(Cc2ccccc2)C3)cc1 | > 54 µM (inactive) |
| CC1CN(C(=O)c2cccc(C(=O)N3CC(C)OC(C)C3)c2)CC(C)O1 (stereo not given) | > 54 µM (inactive) |
| O=S(=O)(c1cccc(-c2nnc(SC(F)F)n2-c2ccccc2)c1)N1CCCCC1 | > 54 µM (inactive) |
| COC(=O)c1ccccc1NC(=O)COC(=O)/C=C/c1ccco1 | > 54 µM (inactive) |
| Cc1cc(NC(=O)c2noc3c2CCc2ccccc2-3)no1 | > 54 µM (inactive) |
| COc1ccc(-c2csc(NC(=S)NC(=O)/C=C/c3ccco3)n2)cc1OC | > 54 µM (inactive) |
| Cc1cc(-c2ccco2)n2c(nc3ccccc32)c1C#N | > 54 µM (inactive) |

| Compound | IC50 |
| --- | --- |
| Cc1nc(C)n(CC(O)COc2ccc3c(c2)CCC3)n1 (stereo not given) | > 54 µM (inactive) |
| COc1ccc2c(c1)c(=O)oc1cc3oc(C)c(C)c3cc12 | 17 µM |
| N#Cc1ccc(CO/N=C/c2ccccc2)cc1 | > 54 µM (inactive) |
| O=C(CNC(=O)c1ccc([N+](=O)[O-])cc1)N/N=C\c1ccc(OC(=O)c2ccccc2)cc1 | 11 µM |
| Cc1ccc(N2C(=O)CC(Cn3nc(C)cc3C)C2=O)cc1 (stereo not given) | > 54 µM (inactive) |
| CN(C)C(=O)/C(C#N)=C\c1cc(Br)c(Sc2ccc(Cl)cc2)o1 | > 54 µM (inactive) |
| c1coc(-c2nc3c4c5c(sc4ncn3n2)CCCC5)c1 | > 54 µM (inactive) |
| O=P(O)(O)C#Cc1ccccc1 | > 54 µM (inactive) |
| CNC(=S)Nc1cc(C)ccc1OC(F)F | > 54 µM (inactive) |
| CC1CCCC(C)N1CCNC(=O)C1CCN(S(=O)(=O)N2CCCCC2)CC1 (stereo not given) | > 54 µM (inactive) |
| Cc1ccc(-c2nnc(N3CC(C)OC(C)C3)c3ccccc23)cc1 (stereo not given) | > 54 µM (inactive) |
| COc1ccc(OC(=O)c2ccncc2)cc1 | > 54 µM (inactive) |
| CCOC(=O)c1ccccc1NC(=O)c1nc2nccc(C)n2n1 | > 54 µM (inactive) |
| O=C(Nc1ccc(S(=O)(=O)Nc2nccs2)cc1)c1cc(-c2ccccc2Cl)nc2ccccc12 | > 54 µM (inactive) |
| O=c1cc(-c2ccccc2Cl)oc2c(NS(=O)(=O)c3cc(Cl)cc(Cl)c3O)ccc(O)c12 | 7.73 µM |
| Nc1c(C(=O)NCC2CCCO2)sc2nc3c(c(-c4ccco4)c12)CC/C3=C\c1ccco1 (stereo not given) | > 54 µM (inactive) |
| O=[N+]([O-])c1cc(Cl)cc(/C=N/NC(=S)Nc2ccc(S(=O)(=O)N3CCOCC3)cc2)c1O | > 54 µM (inactive) |
| CC(=O)Nc1cccc(NC(=O)Nc2ccc(C(C)=O)cc2)c1 | > 54 µM (inactive) |
| Cc1ccc(-c2nnc(SCC(=O)N/N=C/c3ccc(C)s3)n2-c2ccc(C)cc2)cc1 | > 54 µM (inactive) |
| O=C(O)[C@H](Cc1ccccc1)N1Cc2ccccc2C1=O | 22.3 µM |
| CC(C(=O)O)n1nc2ccccc2n1 (stereo not given) | > 54 µM (inactive) |
| Cn1c(=O)c2c(nc(Cc3ccc(N)cc3)n2C)n(C)c1=O | > 54 µM (inactive) |
| CC1C(c2ccccc2)N(C)CCC12NC(=O)NC2=O (stereo not given) | > 54 µM (inactive) |
| CCOc1ccc2nc(N3C(=O)/C(=C/c4ccc(Cl)cc4)NC3=S)sc2c1 | 2.43 µM |
| Cc1cccc(C(=O)N2CCc3cc(-c4nc(NC(=O)Cn5nnc6ccccc6c5=O)sc4C)ccc32)c1 | > 54 µM (inactive) |

| Compound | IC50 |
| --- | --- |
| Cc1sc(NC(=O)c2cc(-c3ccc(Cl)cc3)nc3ccccc23)c(C(N)=O)c1C | 0.92 µM |
| COc1ccc2nc(NC(=O)c3cccc(-c4cc5ccccc5oc4=O)c3)sc2c1 | 0.89 µM |
| O=C(COC(=O)CCS(=O)(=O)c1ccc(Cl)cc1)Nc1ncc(Cl)cc1Cl | > 54 µM (inactive) |
| O=C(O)C1Nc2c(O)cc(Cl)c([N+](=O)[O-])c2C2C=CCC12 (stereo not given) | 0.58 µM |
| CC(=O)N1CCc2cc(S(=O)(=O)NC(Cc3ccccc3)C(=O)NC3CCCCCC3)ccc21 (stereo not given) | > 54 µM (inactive) |
| Cc1ccc2c(c1)C1C=CCC1C(C(=O)O)N2 (stereo not given) | 2.2 µM |
| Nc1nc(SCc2ccc([N+](=O)[O-])cc2)nc2nc3c(cc12)CCCC3 | > 54 µM (inactive) |
| Cc1sc(NC(=O)c2sc3nc4c(C)cccc4cc3c2N)c(C#N)c1C | 0.95 µM |
| O=C(Nc1ccc(-c2nc3cc(Cl)ccc3c(=O)o2)cc1)c1ccco1 | > 54 µM (inactive) |
| CC(=O)Nc1ccc(S(=O)(=O)NCc2ccccn2)cc1 | > 54 µM (inactive) |
| Cc1ccc2nc(N3CC(=O)Nc4ccccc43)nc(-c3ccccc3)c2c1 | > 54 µM (inactive) |
| O=C(CN1C(=O)/C(=C2\SC(=S)N(C3CCS(=O)(=O)C3)C2=O)c2ccccc21)Nc1ccccc1 (stereo not given) | 0.73 µM |
| O=C(C[n+]1cc(-c2ccccc2)n2c1CCC2)N1c2ccccc2Sc2ccccc21 | > 54 µM (inactive) |
| C=CCn1c(O)c(N=NC(=O)CNC(=O)/C=C/c2ccc(OC)cc2)c2ccccc21 | > 54 µM (inactive) |
| CN(C)CC(O)CN(c1ccccc1)c1ccccc1 (stereo not given) | > 54 µM (inactive) |
| COc1ccc(-c2ccc(C#N)c(SCC(=O)Nc3sc4c(c3C#N)CCC4)n2)cc1OC | 0.67 µM |
| Cc1ccc(C)c(C(=O)COC(=O)CCCC(=O)Nc2cc(C(F)(F)F)ccc2Cl)c1 | > 54 µM (inactive) |
| O=C1c2ccccc2C(=O)C1Cc1cccc2ccccc12 | 8.94 µM |
| O=c1[nH]c(-c2ccccc2Cl)nc2c1sc(=S)n2-c1ccccc1 | > 54 µM (inactive) |
| Cc1ccc(-n2cccc2/C=C2/C(=N)N3C(=NC2=O)SN=C3S(C)(=O)=O)cc1Cl | 10.9 µM |
| O=C(Nc1ccc(CCC(=O)N2CCCC2)cc1)c1ncn[nH]1 | > 54 µM (inactive) |
| CCOC(=O)c1ccc(NS(=O)(=O)N2CCCCCC2)cc1 | > 54 µM (inactive) |
| Cc1cc(C)n(Cc2cccc(F)c2)c(=O)c1C#N | > 54 µM (inactive) |
| Cc1cc2c(C(C)C)c(O)c(O)c(C=O)c2c(O)c1-c1c(C)cc2c(C(C)C)c(O)c(O)c(C=O)c2c1O | 1.17 µM and 0.86 µM |
| Cc1ccc(C(=O)NNC(=O)CCC(=O)Nc2cc(C)on2)cc1 | > 54 µM (inactive) |

| Compound | IC50 |
| --- | --- |
| NC(=S)n1[nH]c(-c2ccc([N+](=O)[O-])cc2)c(N=Nc2cccc([N+](=O)[O-])c2)c1=O | 2.37 µM |
| CSc1nc(N(CCO)CCO)c2sc3nc(-c4ccco4)c4c(c3c2n1)CCC4 | > 54 µM (inactive) |
| CC(C)C1(C)N=C(c2ncccc2C(=O)O)NC1=O (stereo not given) | > 54 µM (inactive) |
| Nc1nc(Nc2cccc(F)c2)nc(N2CCOCC2)c1[N+](=O)[O-] | > 54 µM (inactive) |
| C/C(=N/NC(=O)c1ccccn1)c1ccc(O)cc1 | > 54 µM (inactive) |
| COC(=O)c1ccc2c(=O)n(CCCCCC(=O)NCc3ccc4c(c3)OCO4)c(=O)[nH]c2c1 | inactive |
| O=C(N/N=C/c1ccncc1)c1cccc(S(=O)(=O)Nc2ccc(Cl)cc2)c1 | 2.24 µM |
| CN(c1cccc(NC(=O)c2ccccc2N(C)S(C)(=O)=O)c1)S(C)(=O)=O | > 54 µM (inactive) |
| O=C1C(C=NCc2ccncc2)=C(O)c2ccccc21 | > 54 µM (inactive) |
| O=C(O)c1ccc2ncsc2c1 | 0.52 µM |
| CCCCSc1cc(C)nc(N)n1 | > 54 µM (inactive) |
| CCc1cccc(CC)c1NC(=S)N1CCn2cccc2C1c1cccnc1 (stereo not given) | > 54 µM (inactive) |
| COc1ccc(CN2C(=O)c3cccnc3C2O)cc1 (stereo not given) | 0.71 µM |
| O=[N+]([O-])/C(C(Cl)=C(Cl)Cl)=C(\Nc1ccc(F)cc1)n1cncn1 | 17.4 µM |
| CNc1ccc(Br)cc(C(=O)/C=C/c2cccc(Cl)c2Cl)c1=O | 3.46 µM |
| NC(=O)c1cccn1-c1ncc(C(F)(F)F)cc1Cl | > 54 µM (inactive) |
| COc1ccc(NS(=O)(=O)c2cccc(NC(=O)CCC(=O)c3ccc(Cl)cc3)c2)cc1 | > 54 µM (inactive) |
| Cc1ccc(C(=O)NNC(=O)CSc2nnc3c(n2)[nH]c2ccc(F)cc23)cc1 | > 54 µM (inactive) |
| CC1=C(C#N)C(=O)NC(=O)/C1=C\c1ccc(-c2ccc(C)cc2[N+](=O)[O-])o1 | 1.09 µM |
| CCCCN(C)C(=O)c1coc(=O)c2ccccc12 | > 54 µM (inactive) |
| O=C(O)CCCCCN1C(=O)/C(=C\c2ccc(-c3ccc(Cl)cc3)o2)SC1=S | 16.5 µM |
| NS(=O)(=O)c1cc2c(cc1Cl)NC(Cc1ccccc1)NS2(=O)=O (stereo not given) | > 54 µM (inactive) |
| Cn1c2ccccc2c(=O)c2c(=O)n(C3CCCCCC3)c(C3CCCCC3)nc21 | 2.27 µM |
| NC(=O)N1CCN(C(=O)c2ccco2)CC1 | > 54 µM (inactive) |
| Cc1ccc(-c2nn(C)c(=O)c3ccccc23)cc1CNC(=O)Cn1nc(-c2ccccc2)c2ccccc2c1=O | 0.56 µM |
